Experimental data as given in ChEMBL document CHEMBL6120996, “Discovery and optimization of 1,2,4-triazole derivatives as novel ferroptosis inhibitors” (Eur J Med Chem, 2025).
The source made the active and inactive calls. The calls are words filed in the database; no cut-off is given here.

Experiments:
786-0 [1] = test: Metal chelating activity assessed as Fe2+ chelation in human 786-0 cells assessed as intracellular ferrous ion level at 100 uM by FerroOrange fluorescent probe based assay; format: cell-based
[2] = Metal chelating activity assessed as Fe2+ chelation assessed as absorbance peak at 430 nm by UV-vis spectroscopy; details: dose 1.0 µM
[3] = Microsomal stability in human liver microsomes assessed as hepatic clearance at 1 uM by LC-MS/MS analysis; format: ADME, Microsome
[4] = Microsomal stability in human liver microsomes assessed as hepatic extraction ratio at 1 uM by LC-MS/MS analysis; format: ADME, Microsome; details: read-out: ERH
[5] = Microsomal stability in rat liver microsomes assessed as hepatic extraction ratio at 1 uM by LC-MS/MS analysis; format: ADME, Microsome; details: read-out: ERH
786-0 [6] = test: Inhibition of RSL3-induced ferroptosis in human 786-0 cells assessed as cell viability incubated for 24 hrs by CellTiter-LumiTM assay; format: functional, cell-based; details: 786-0, 24 h
HT-1080 = test: Anti-ferroptotic activity in human GPX4 knockout HT-1080 cells assessed as cell viability at 1 uM incubated for 24 hrs by CellTiter-LumiTM plus luminescent cell viability assay; format: functional, cell-based
[7] = Metabolic stability in human plasma assessed as half life at 1 uM by LC-MS/MS analysis; format: ADME, cell-free
[8] = Metabolic stability in rat plasma assessed as half life at 1 uM by LC-MS/MS analysis; format: ADME, cell-free
[9] = Microsomal stability in human liver microsomes assessed as half life at 0.1 uM by LC-MS/MS analysis; format: ADME, Microsome; details: microsomes, 0.1 µM
[10] = Microsomal stability in rat liver microsomes assessed as half life at 0.1 uM by LC-MS/MS analysis; format: ADME, Microsome; details: microsomes, 0.1 µM
[11] = Microsomal stability in human liver microsomes assessed as hepatic extraction ratio at 0.1 uM by LC-MS/MS analysis; format: ADME, Microsome; details: read-out: ERH
[12] = Microsomal stability in rat liver microsomes assessed as hepatic extraction ratio at 0.1 uM by LC-MS/MS analysis; format: ADME, Microsome; details: read-out: ERH
786-0 [13] = test: Inhibition of RSL3-induced ferroptosis in human 786-0 cells assessed as cell viability by assessing cell morphology incubated for 24 hrs by CellTiter-LumiTM plus luminescent cell viability assay; format: functional, cell-based; details: 786-0, 24 h
[14] = Inhibition of erastin induced ferroptosis in human 786-0 cells assessed as cell viability incubated for 24 hrs by CellTiter-LumiTM assay; format: functional, cell-based; details: 786-0, 24 h
[15] = Inhibition of RSL3 induced ferroptosis in H9c2 cells assessed as cell viability incubated for 24 hrs by CellTiter-LumiTM assay; format: functional, cell-based; details: Rattus norvegicus, H9c2, 24 h
[16] = Inhibition of RSL3 induced ferroptosis in human HT-1080 cells assessed as cell viability incubated for 24 hrs by CellTiter-LumiTM assay; format: functional, cell-based; details: HT-1080, 24 h
[17] = Inhibition of RSL3 induced ferroptosis in human SK-HEP1 cells assessed as cell viability incubated for 24 hrs by CellTiter-LumiTM assay; format: functional, cell-based; details: SK-HEP1, 24 h
[18] = Inhibition of RSL3 induced ferroptosis in human MHCC97H cells assessed as cell viability incubated for 24 hrs by CellTiter-LumiTM assay; format: functional, cell-based
786-0 [19] = test: Inhibition of STS induced apoptosis in human 786-0 cells assessed as cell viability at 1 uM incubated for 24 hrs by CellTiter-LumiTM assay; format: functional, cell-based
786-0 [20] = test: Inhibition of H2O2 induced necrosis in human 786-0 cells assessed as cell viability at 1 uM incubated for 24 hrs by CellTiter-LumiTM assay; format: functional, cell-based
786-0 [21] = test: Metal chelating activity assessed as Fe2+ chelation in human 786-0 cells assessed as intracellular ferrous ion level at 1 uM by FerroOrange fluorescent probe based assay; format: cell-based
786-0 [22] = test: Inhibition of RSL3 induced ferroptosis in human 786-0 cells assessed as cell viability in presence of iFSP1 at 1 uM measured after 24 hrs by CellTiter-LumiTM assay; format: functional, cell-based
786-0 [23] = test: Effect on erastin-induced decrease in GSH level in human 786-0 cells at 1 uM incubated for 10 hrs by Total intracellular GSH assay; format: functional, cell-based
786-0 [24] = test: Cytotoxicity against human 786-0 cells assessed as cell viability incubated for 24 hrs by CellTiter-LumiTM assay; format: functional
786-0 [25] = test: Inhibition of RSL3 induced lipid-ROS accumulation in human 786-0 cells incubated for 2.5 hrs by C11-BODIPY 581/591 staining coupled with flow cytometry analysis; format: functional, cell-based; details: dose 0.1-1 µM
786-0 [26] = test: Inhibition of RSL3 induced lipid-ROS accumulation in human 786-0 cells assessed as fast elimination at 1 uM measured after 0.25 to 2.5 hrs by C11-BODIPY 581/591 staining coupled with flow cytometry analysis; format: functional, cell-based; details: time 0.25-2.5 hrs
SK-HEP1 [27] = test: Inhibition of RSL3 induced lipid-ROS accumulation in human SK-HEP1 cells at 1 uM incubated for 2.5 hrs by C11-BODIPY 581/591 staining coupled with flow cytometry analysis; format: functional, cell-based
SK-HEP1 [28] = test: Inhibition of RSL3 induced lipid-ROS accumulation in human SK-HEP1 cells at 1 uM incubated for 0.5 hrs by C11-BODIPY 581/591 staining coupled with flow cytometry analysis; format: functional, cell-based
[29] = Antioxidant activity assessed as free radical scavenging activity incubated for 30 mins in dark by DPPH assay relative to control; format: functional
[30] = Suppression of autoxidation of liposomes egg ( unknown origin) phosphatidylcholine lipids as substrate at 0.1 to 2.5 uM incubated for 5 min by C11-BODIPY 581/591 dye based fluorescent assay; format: functional; details: dose 0.1-2.5 µM
Mus musculus [31] = test: Anti-ferroptotic activity in ConA-induced C57 mouse liver injury model assessed as reduction in ALT levels in serum at 10 mg/kg, ip pre-treated 1 day followed by treated with ConA measured after 24 hrs; format: functional, organism-based; details: time 2.0 day
Mus musculus [32] = test: Anti-ferroptotic activity in ConA-induced C57 mouse liver injury model assessed as reduction in AST levels in serum at 10 mg/kg, ip pre-treated 1 day followed by challenged with ConA measured after 24 hrs; format: functional, organism-based
786-0 [33] = test: Effect on GPX4 expression in human 786-0 cells at 1 uM incubated for 2.5 hrs by Western blot analysis; format: functional, cell-based
786-0 [34] = test: Effect on IRP1 expression in human 786-0 cells at 1 uM incubated for 2.5 hrs by western blot analysis; format: functional, cell-based
786-0 [35] = test: Effect on ACSL4 expression in human 786-0 cells at 1 uM incubated for 2.5 hrs by Western blot analysis; format: functional, cell-based
786-0 [36] = test: Effect on SLC7A11 expression in human 786-0 cells at 1 uM incubated for 2.5 hrs by Western blot analysis; format: functional, cell-based
786-0 [37] = test: Effect on TFRC expression in human 786-0 cells at 1 uM incubated for 2.5 hrs by Western blot analysis; format: functional, cell-based
786-0 [38] = test: Effect on FTH1 expression in human 786-0 cells at 1 uM incubated for 2.5 hrs by western blot analysis; format: functional, cell-based
786-0 [39] = test: Effect on FTL expression in human 786-0 cells at 1 uM incubated for 2.5 hrs by western blot analysis; format: functional, cell-based
Mus musculus [40] = test: Anti-ferroptotic activity in ConA-induced C57 mouse liver injury model assessed as decrease in acute liver injury at 10 mg/kg, ip pre-administered one day followed by treated with ConA measured after 24 hrs by HE staining based analysis; format: functional, organism-based; details: time 48.0 hrs
Mus musculus [41] = test: Anti-ferroptotic activity in ConA-induced C57 mouse acute liver injury model assessed as reduction in malondialdehyde levels at 10 mg/kg, ip pre-administered one day followed by treated with ConA measured after 24 hrs by MDA kit assay; format: functional, organism-based; details: time 48.0 hrs
Mus musculus [42] = test: Anti-ferroptotic activity in ConA-induced C57 mouse acute liver injury model assessed as assessed as reduction in PTGS2 mRNA levels in liver tissue at 10 mg/kg, ip pre-administered one day followed by treated with ConA measured after 24 hrs by qRT-PCR analysis; format: functional, organism-based; details: time 48.0 hrs
Mus musculus [43] = test: Anti-ferroptotic activity in ConA-induced C57 mouse acute liver injury model assessed as assessed as reduction in 4-HNE accumulation in liver tissue at 10 mg/kg, ip pre-administered one day followed by treated with ConA measured after 24 hrs by 4-HNE staining based analysis; format: functional, organism-based; details: time 48.0 hrs
786-0 [44] = test: Effect on TFRC expression in human 786-0 cells in presence of 0.25 uM RSL3 at 1 uM incubated for 2.5 hrs by Western blot analysis; format: functional, cell-based
786-0 [45] = test: Effect on IRP1 expression in human 786-0 cells in presence of 0.25 uM RSL3 at 1 uM incubated for 2.5 hrs by Western blot analysis; format: functional, cell-based
786-0 [46] = test: Effect on FTH1 expression in human 786-0 cells in presence of 0.25 uM RSL3 at 1 uM incubated for 2.5 hrs by Western blot analysis; format: functional, cell-based
786-0 [47] = test: Effect on FTL expression in human 786-0 cells in presence of 0.25 uM RSL3 at 1 uM incubated for 2.5 hrs by Western blot analysis; format: functional, cell-based

CC(=O)N(O)CCCCCNC(=O)CCC(=O)N(O)CCCCCNC(=O)CCC(=O)N(O)CCCCCN
Activity (786-0 [1]): Active
Activity [2]: Active

C[C@]12CC[C@H]3[C@@H](CCC4=CC(=O)CC[C@@]43C)[C@@H]1CC[C@@H]2O [TESTOSTERONE]
CLhep predicted at 1 µM [3]: 19.3 mL/min/kg
hepatic extraction ratio at 1 µM [4]: 0.935
hepatic extraction ratio at 1 µM [5]: 0.994

COc1ccc(COc2c(OC)cccc2C2N(c3ccccc3)N=C(C(C)=O)N2c2ccc(N(C)C)cc2)cc1 (stereo not drawn)
EC50 (786-0 [6]): 80 nM
Activity (HT-1080): Active
half-life at 1 µM [7]: 23.9 h
half-life at 1 µM [8]: 4.97 h
t1/2 [9]: 4.02 min
t1/2 [10]: 1.66 min
hepatic extraction ratio at 0.1 µM [11]: 0.99
hepatic extraction ratio at 0.1 µM [12]: 0.993
EC50 (786-0 [13]): 84 nM
EC50 [14]: 54 nM
EC50 [15]: 142 nM
EC50 [16]: 74 nM
EC50 [17]: 164 nM
EC50 [18]: 349 nM
inhibition (786-0 [19]): inactive
inhibition (786-0 [20]): inactive
Activity (786-0 [21]): inactive
inhibition (786-0 [22]): Active
Activity (786-0 [23]): inactive
CC50 (786-0 [24]): > 10000 nM
inhibition (786-0 [25]): Dose-dependent-effect
inhibition (786-0 [26]): Active; Eliminated As Fast As Fer-1
inhibition (SK-HEP1 [27]): Active
inhibition (SK-HEP1 [28]): Active
Activity [29]: Active
Activity [30]: Dose-dependent-effect
Activity (Mus musculus [31]): Active
Activity (Mus musculus [32]): Active
Activity (786-0 [33]): No effect
Activity (786-0 [34]): No effect
Activity (786-0 [35]): No effect
Activity (786-0 [36]): No effect
Activity (786-0 [37]): No effect
Activity (786-0 [38]): No effect
Activity (786-0 [39]): No effect
Activity (Mus musculus [40]): Active
Activity (Mus musculus [41]): Active
Activity (Mus musculus [42]): Active
Activity (Mus musculus [43]): Active
Activity (786-0 [44]): inactive
Activity (786-0 [45]): inactive
Activity (786-0 [46]): inactive
Activity (786-0 [47]): inactive
